The target in data set [1] is T1, Human EDG-1 (Homo sapiens, UniProt P21453).
T1 construct: expressed in transfected cells; host or cells: CHO cells
Nature of the data set: Agonistic activity against EDG by monitoring changes in intracellular calcium ion [Ca^2+]i concentration. In kind it is cell-based. To be noted: Human EDG-1 overexpressing CHO cells; read-out: EC50 (increase in intracellular calcium ion concentration). The protocol:
Human EDG-1, EDG-3, EDG-5, or EDG-8 gene overexpressing CHO cells were cultured in Ham's F12 medium (manufactured by GibcoBRL) containing 10% FBS (fetal bovine serum), penicillin/streptomycin, and blasticidin (5 μg/ml). The cultured cells were incubated in a 5 μM Fura2-AM solution (Ham's F12 medium containing 10% of FBS, 20 mM HEPES buffer (pH7.4), and 2.5 mM probenecid) at 37° C. for 60 minutes. After washing once with Hanks solution containing 20 mM HEPES buffer (pH7.4) and 2.5 mM probenecid, the plate was soaked in the same solution. Then, the plate was set on a fluorescent drug screening system (FDSS 6000; Hamamatsu Photonics K. K.) and the intracellular calcium ion concentration was measured without stimulation for 30 seconds. A test compound (final concentration: 1 nM to 10 μM, dimethylsulfoxide (DMSO) solution) was added and S1P (final concentration: 100 nM) was added 5 minutes thereafter. Then, the increase in the intracellular calcium ion concentration was measured before and after the addition of S1P at intervals of 3 seconds (excitation wavelength: 340 nm and 380 nm, fluorescence wavelength: 500 nm).
The agonistic activity of the compound against each EDG was determined by using the peak value due to S1P-stimulation in a well containing DMSO as a substitute for the evaluated compound as a control value (A), comparing the value […] the addition of the evaluated compound with the increased value (B) in the fluorescent ratio after the addition, and calculating the increase ratio (%) in the intracellular calcium ion [Ca^2+]i concentration as: increase ratio (%)=(B/A)×100. Increase ratios of the compound at individual concentrations were determined and the EC50 value was calculated.

The subject of data set [2] is lymphocyte in blood. Nature of the data set: Counting the number of lymphocyte in blood after oral administration. The format is in vivo, male BALB/c mice or male Sprague-Dawley rats. Conditions: Mus musculus, 24 hours after the administration, read-out: ED50 (dose required for lowering the blood cell count to 50%). How it is done:
Test compounds were orally administered to male BALB/c mice or male Sprague-Dawley rats (Charles River Laboratories, Japan, Inc., 6-week-old at the time of use). 4 to 72 hours after the administration, the blood was collected from the aorta abdominalis under ether anesthesia. The number of the total leucocyte count, the lymphocyte count, the neutrophil count, the erythrocyte count, the platelet count in blood and the hematocrit value were measured with a multipurpose automatic blood cell counter (SF-3000, manufactured by Sysmex Corporation). Evaluation was made by setting the average blood cell count in a vehicle-administered group (vehicle group) as 100% and calculating the percentage of vehicle from the average blood cell count of each test compound-administered group.

Data set [3] deals with experimental allergic encephalomyelitis. As to the kind of experiment: Experimental allergic encephalomyelitis (EAE) model, Case 2: administration from immediately before development of symptoms. The format is in vivo, Female LEW/CrlCrlj rats. Conditions: oral dose of 0.3 mg/kg once a day, from Day 9 to Day 19. How it is done: Killed Mycobacterium tuberculosis (M. tuberculosis H37 Ra, Difco, Cat No. 231141) was suspended in distilled water for injection to dissolve MBP (Myelin basic protein, SIGMA, Cat No. M-2295) (Killed Mycobacterium tuberculosis: 1000 μg/mL, MBP: 60 μg/mL). This solution was mixed with an equivalent amount of FCA (Freund Complete Adjuvant, CHEMICON, Cat No. AR001) to thereby prepare an emulsion. Female LEW/CrlCrlj rats (Charles River Laboratories, Japan, Inc., 6-week-old at the time of purchase, 7-week-old at the time of sensitization) were antigen-sensitized by a single subcutaneous injection (0.1 mL/rat) of the emulsion in the right foot pad under slight ether anesthesia, thereby inducing the symptoms of experimental allergic encephalomyelitis. […]
The EAE symptoms of the rats were observed every day from Day 7 to Day 20, and evaluated based on the following criteria: Tail relaxation: 1 point, Incomplete paralysis of hind legs: 1 point, Complete paralysis of hind legs: another 1 point, and Incontinentia: 1 point. […]
Using 0.5% MC solution (0.5 w/v % Methyl Cellulose 400cP Solution, Wako Pure Chemical Industries, Ltd., Cat No. 133-14255) as a vehicle, the test compound was forcibly administered orally in an amount of 5 mL/kg once a day from Day 9 […] sensitization to Day 19. […] The body weight was measured every day from Day 9 and the dose was determined based on the body weight of each day.

The test system of data set [4] is heart rate. As to the kind of experiment: Evaluation of cardiotoxicity (bradycardia). The format is in vivo. To be noted: rabbits, intravenously administered, dose of 0.01 mg/kg. The source says:
A catheter was inserted into the jugular vein and carotid artery (or the femoral vein and femoral artery) of mammals (e.g., SD rat and a rabbit). The tip of the arterial cannula was connected to a pressure transducer (DX-100, manufactured by NIHON KOHDEN CORP.), thereby measuring blood pressure through a strain pressure amplifier (AP-641G, manufactured by NIHON KOHDEN CORP.) and measuring heart rate through an instantaneous heart rate measuring unit (AT-601G, manufactured by NIHON KOHDEN CORP.), respectively. Alternatively, heart rate was measured with an electrocardiogram. Under anesthesia or under awareness after arousal was induced, the test compound was administered intravenously or administered orally. Then, changes in blood pressure and heart rate were measured.

Data set [5] concerns experimental allergic encephalomyelitis. Nature of the data set: Experimental allergic encephalomyelitis (EAE) model, Case 1: administration from the day of sensitization. The format is in vivo, Female LEW/CrlCrlj rats. Conditions: from the day of sensitization to Day 19. The protocol:
Killed Mycobacterium tuberculosis (M. tuberculosis H37 Ra, Difco, Cat No. 231141) was suspended in distilled water for injection to dissolve MBP (Myelin basic protein, SIGMA, Cat No. M-2295) (Killed Mycobacteriumtuberculosis: 1000 μg/mL, MBP: 60 μg/mL). This solution was mixed with an equivalent amount of FCA (Freund Complete Adjuvant, CHEMICON, Cat No. AR001) to thereby prepare an emulsion. Female LEW/CrlCrlj rats (Charles River Laboratories, Japan, Inc., 6-week-old at the time of purchase, 7-week-old at the time of sensitization) were antigen-sensitized by a single subcutaneous injection (0.1 mL/rat) of the emulsion in the right foot pad under slight ether anesthesia, thereby inducing the symptoms of experimental allergic encephalomyelitis. The day of sensitization was defined as Day 0.
The EAE symptoms of the rats were observed every day from Day 8 to Day 20, and were evaluated based on the following criteria: Tail relaxation: 1 point, Incomplete paralysis of hind legs: 1 point, Complete paralysis of hind legs: another 1 point, and Incontinentia: 1 point. The maximum score was 4 points. Death was 5 points.
Using a 0.5% MC solution (0.5 w/v % Methyl Cellulose 400cP Solution, Wako Pure Chemical Industries, Ltd., Cat No. 133-14255) as a vehicle, the test compound was forcibly administered orally in an amount of 5 mL/kg once a day from […] the day of sensitization to Day 19. To a control group, the same amount of 0.5% MC solution was forcibly administered orally once a day for the same period. The body weight was measured every day from Day 0 and the dose was determined based on the body weight of each day.

Where [6] appears, read: oral dose of 0.3 mg/kg once a day.

Where a name gives a salt, the structure may show the parent alone.

Broadly, the melting point is the temperature of the solid-liquid transition. One may read the ED50 as the dose that gives a 50% effect, or the effect in half of the subjects.

T1 sequence (P21453 whole entry): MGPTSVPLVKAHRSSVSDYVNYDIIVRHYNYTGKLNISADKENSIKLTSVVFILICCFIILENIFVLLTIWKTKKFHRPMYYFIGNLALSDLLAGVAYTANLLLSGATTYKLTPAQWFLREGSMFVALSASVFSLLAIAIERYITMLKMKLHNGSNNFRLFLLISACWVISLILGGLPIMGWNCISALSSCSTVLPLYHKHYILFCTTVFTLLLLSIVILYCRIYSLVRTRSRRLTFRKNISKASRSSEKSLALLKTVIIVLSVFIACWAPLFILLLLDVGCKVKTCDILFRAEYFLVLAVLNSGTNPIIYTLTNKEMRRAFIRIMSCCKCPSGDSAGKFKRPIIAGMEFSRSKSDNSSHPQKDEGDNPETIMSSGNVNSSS

`CC1=C(CN2CC(C(=O)O)C2)CCc2cc(OCCCc3ccc(Cl)cc3)ccc21` [Example 7-1, 1-({6-[3-(4-chlorophenyl)propoxy]-1-methyl-3,4-dihydro-2-naphthalenyl}methyl)-3-azetidinecarboxylic acid] gave a melting point of 165.4 to 166.9 °C.

In turn, `CC1=C(CN2CC(C(=O)O)C2)CCc2cc(OC[C@@H](C)Cc3ccc(F)cc3)ccc21` [Example 7-4, 1-[(6-{[(2S)-3-(4-fluorophenyl)-2-methylpropyl]oxy}-1-methyl-3,4-dihydro-2-naphthalenyl)methyl]-3-azetidinecarboxylic acid] yielded a melting point of 142.5 to 143.6 °C.

As to `CC1=C(CN2CC(C(=O)O)C2)CCc2cc(OC[C@@H](C)Cc3ccc(Cl)cc3)ccc21` [Example 7-10, 1-[(6-{[(2S)-3-(4-chlorophenyl)-2-methylpropyl]oxy}-1-methyl-3,4-dihydro-2-naphthalenyl)methyl]-3-azetidinecarboxylic acid], the melting point fell in the range of 148.6 to 148.9 °C.

On to `CC(C)Cc1ccc(-c2nc(-c3ccc4c(c3)CCN(CCC(=O)O)C4)no2)cc1` [Example 13-4, 3-[6-[5-(4-isobutylphenyl)-1,2,4-oxadiazol-3-yl]-3,4-dihydro-2(1H)-isoquinolinyl]propanoic acid trifluoroacetate], for which, in data set [1], the EC50 came to 41 nM.

Consider `O=C(O)CCN1CCc2c([nH]c3cc(OCCCc4ccccc4)ccc23)C1` [Example 18, 3-[7-(3-phenylpropoxy)-1,3,4,9-tetrahydro-2H-β-carbolin-2-yl]propanoic acid trifluoroacetate], for which, in data set [1], the EC50 was found to be 662 nM.

For the molecule `O=C(O)C1CN(CC2=C(Cl)c3ccc(OCCCC4CCCCC4)cc3CC2)C1` [Example 27-7, 1-{[1-chloro-6-(3-cyclohexylpropoxy)-3,4-dihydronaphthalen-2-yl]methyl}azetidine-3-carboxylic acid], the EC50 in data set [1] came out at 0.7 nM. Besides, in data set [2], the ED50 stood at 1.6 mg/kg.

Turning to `O=C(O)CCN1CC=C(c2ccc(OCCCc3ccc(Cl)cc3)cc2)CC1` [Example 29-1, 3-[4-{4-[3-(4-chlorophenyl)propoxy]phenyl}-3,6-dihydropyridin-1(2H)-yl]propanoic acid trifluoroacetate], the EC50 in data set [1] was 133 nM.

With `CCCc1ccc(COc2ccc3c(c2)CCC(CN2CC(C(=O)O)C2)=C3C)c(OC)c1` [Example 37, 1-({6-[(2-methoxy-4-propylbenzyl)oxy]-1-methyl-3,4-dihydro-2-naphthalenyl}methyl)-3-azetidinecarboxylic acid], the “inhibition of the development of EAE symptoms” value is listed as “almost completely inhibited” in data set [3], “almost completely inhibited” in data set [5] (oral dose of 0.1 mg/kg once a day) and “completely inhibited” in data set [5] (setting [6]). For the same molecule, the “decrease of heart rate” value in data set [4] is on record as at most 20%. In addition, the EC50 in data set [1] was 1 nM. The ED50 in data set [2] was 0.029 mg/kg.

Consider `CC1=C(CN2CC(C(=O)O)C2)CCc2cc(OCc3ccc(C(F)(F)F)cc3C(F)(F)F)ccc21` [Example 37-5, 1-[(6-{[2,4-bis(trifluoromethyl)benzyl]oxy}-1-methyl-3,4-dihydro-2-naphthalenyl)methyl]-3-azetidinecarboxylic acid], for which the “inhibition of the development of EAE symptoms” value is recorded as “had the effect of inhibiting the development of symptoms” in data set [3] and “almost completely inhibited” in data set [5] (setting [6]).

On to `CCCc1ccc(COc2ccc3c(c2)CCC(CN2CC(C(=O)O)C2)=C3Cl)c(OC)c1` [Example 37-6, 1-({1-chloro-6-[(2-methoxy-4-propylbenzyl)oxy]-3,4-dihydro-2-naphthalenyl}methyl)-3-azetidinecarboxylic acid], for which the EC50 in data set [1] stood at 0.7 nM.

The record behind these values is patent US7906549B2, “Aminocarboxylic acid derivative and medicinal use thereof” (Ono Pharmaceutical Co., Ltd., priority 2004, dated 2011).
